Biological target: T1, human dopamine transporter (hDAT) (Homo sapiens, UniProt Q01959, I248Y)
T1 construct: gene SLC6A3; hDAT-I248Y expressed in HEK293S cells
Type: cell-based

T1 sequence (Q01959 whole entry I248Y): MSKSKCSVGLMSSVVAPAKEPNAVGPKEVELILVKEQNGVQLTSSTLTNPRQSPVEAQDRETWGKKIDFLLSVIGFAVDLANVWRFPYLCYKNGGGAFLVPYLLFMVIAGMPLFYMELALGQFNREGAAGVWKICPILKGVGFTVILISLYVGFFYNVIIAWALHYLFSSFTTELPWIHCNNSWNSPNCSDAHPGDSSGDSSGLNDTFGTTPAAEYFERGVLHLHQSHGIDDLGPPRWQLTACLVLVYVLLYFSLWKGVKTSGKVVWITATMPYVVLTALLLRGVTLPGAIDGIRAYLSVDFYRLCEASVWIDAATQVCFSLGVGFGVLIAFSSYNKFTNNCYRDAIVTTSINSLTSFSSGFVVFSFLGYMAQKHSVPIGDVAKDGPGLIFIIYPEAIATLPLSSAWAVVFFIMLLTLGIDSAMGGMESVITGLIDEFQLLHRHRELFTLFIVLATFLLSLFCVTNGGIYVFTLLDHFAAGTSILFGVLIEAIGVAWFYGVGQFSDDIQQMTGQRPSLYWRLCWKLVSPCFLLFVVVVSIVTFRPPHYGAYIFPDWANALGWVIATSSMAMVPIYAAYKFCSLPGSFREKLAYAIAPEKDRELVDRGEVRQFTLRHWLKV

NCCc1ccc(O)c(O)c1 [dopamine]
[3H]dopamine uptake in cells: the I248Y mutant was also able to transport dopamine (S2 Fig)

From paper PMC6028122, “Thermostabilization and purification of the human dopamine transporter (hDAT) in an inhibitor and allosteric ligand bound conformation” (PLoS ONE, 2018)
